Assay results as given in ChEMBL document CHEMBL1275493, “Anti-human immunodeficiency virus type 1 activities of antimicrobial peptides derived from human and bovine cathelicidins” (Antimicrob Agents Chemother, 2008).
pEC50: −log10 of the molar value. Peptide text beside a SMILES is read from it.

Experiments:
[1] = tested on: Human immunodeficiency virus 1; experiment: Antiviral activity against Human immunodeficiency virus 1 3B infected in CEM-SS cells; type: functional, organism-based
CEM-SS = experiment: Cytotoxicity against Human immunodeficiency virus 1 3B infected human CEM-SS cells; type: functional; conditions: read-out: TC50 (the source's name)
[2] = Therapeutic index, TC50 for Human immunodeficiency virus 1 3B infected human CEM-SS cells to EC50 for immunodeficiency virus 1 3B; type: cell-based; conditions: CEM-SS cells infected with HIV-1 3B, read-out: TI

For `CC[C@H](C)[C@H](NC(=O)[C@H](CCCCN)NC(=O)[C@H](CCCCN)NC(=O)[C@H](Cc1ccccc1)NC(=O)[C@H](CC(C)C)NC(=O)[C@H](CCCCN)NC(=O)[C@H](CCCCN)NC(=O)[C@H](Cc1ccccc1)NC(=O)[C@@H]1CCCN1C(=O)[C@H](CCCCN)NC(=O)[C@H](CCCNC(=N)N)NC(=O)[C@H](Cc1ccccc1)NC(=O)[C@H](CCCNC(=N)N)NC(=O)[C@H](CCCCN)NC(=O)[C@H](Cc1ccccc1)NC(=O)[C@H](CCCNC(=N)N)NC(=O)CN)C(=O)N[C@@H](CO)C(=O)O` (H-GRFKRFRKPFKKLFKKIS-OH), the pEC50 [1] was 5.49, the CC50 (CEM-SS) was 18.9 µM and the selectivity ratio [2] was 5.9.
Molecule `CC[C@H](C)[C@H](NC(=O)[C@H](CCCNC(=N)N)NC(=O)[C@H](CCC(N)=O)NC(=O)[C@@H](NC(=O)[C@@H](NC(=O)[C@H](CCCNC(=N)N)NC(=O)[C@H](CCCCN)NC(=O)[C@H](Cc1ccccc1)NC(=O)CN)[C@@H](C)CC)C(C)C)C(=O)N[C@@H](CCCCN)C(=O)N[C@@H](CC(=O)O)C(=O)N[C@@H](Cc1ccccc1)C(=O)N[C@@H](CC(C)C)C(=O)N[C@@H](CCCNC(=N)N)C(=O)N[C@@H](CC(N)=O)C(=O)N[C@@H](CC(C)C)C(=O)N[C@H](C(=O)O)C(C)C` has a pEC50 [1] of 6.01, a CC50 (CEM-SS) of 8.9 µM and a selectivity ratio [2] of 9.1.
For `CC[C@H](C)[C@H](NC(=O)[C@H](CCCCN)NC(=O)[C@H](CCCCN)NC(=O)[C@H](Cc1ccccc1)NC(=O)[C@H](CC(C)C)NC(=O)[C@H](CCCCN)NC(=O)[C@H](CCCCN)NC(=O)[C@H](NC(=O)[C@H](CCCCN)NC(=O)[C@H](CCCCN)NC(=O)[C@H](CCCNC(=N)N)NC(=O)[C@H](NC(=O)[C@H](CCCNC(=N)N)NC(=O)[C@H](CCCCN)NC(=O)[C@H](Cc1ccccc1)NC(=O)[C@H](CCCNC(=N)N)NC(=O)CN)c1ccccc1)c1ccccc1)C(=O)N[C@@H](CO)C(=O)O`, the pEC50 [1] was 6.17, the CC50 (CEM-SS) was 10.2 µM and the selectivity ratio [2] was 15.
`CC[C@H](C)[C@H](NC(=O)CN)C(=O)N[C@@H](CCCCN)C(=O)N[C@@H](CCC(N)=O)C(=O)N[C@@H](Cc1ccccc1)C(=O)N[C@@H](CCCCN)C(=O)N[C@@H](CCCNC(=N)N)C(=O)N[C@H](C(=O)N[C@H](C(=O)N[C@@H](CCC(N)=O)C(=O)N[C@@H](CCCNC(=N)N)C(=O)N[C@H](C(=O)N[C@@H](CCCCN)C(=O)N[C@@H](CC(=O)O)C(=O)N[C@@H](Cc1ccccc1)C(=O)N[C@@H](CC(C)C)C(=O)N[C@@H](CCCNC(=N)N)C(=O)N[C@@H](CC(N)=O)C(=O)N[C@@H](CC(C)C)C(=O)N[C@H](C(=O)O)C(C)C)[C@@H](C)CC)C(C)C)[C@@H](C)CC` (H-GIKQFKRIVQRIKDFLRNLV-OH) showed a pEC50 [1] of 6.04 and a selectivity ratio [2] of 15.1.
In the case of `CC[C@H](C)[C@H](NC(=O)[C@H](CCCCN)NC(=O)[C@H](CCC(=O)O)NC(=O)[C@H](CCCCN)NC(=O)[C@@H](N)CO)C(=O)NCC(=O)N[C@@H](CCCCN)C(=O)N[C@@H](CCC(=O)O)C(=O)N[C@@H](Cc1ccccc1)C(=O)N[C@@H](CCCCN)C(=O)N[C@@H](CCCNC(=N)N)C(=O)N[C@H](C(=O)N[C@H](C(=O)N[C@@H](CCC(N)=O)C(=O)N[C@@H](CCCNC(=N)N)C(=O)N[C@H](C(=O)N[C@@H](CCCCN)C(=O)N[C@@H](CC(=O)O)C(=O)N[C@@H](Cc1ccccc1)C(=O)N[C@@H](CC(C)C)C(=O)N[C@@H](CCCNC(=N)N)C(=O)O)[C@@H](C)CC)C(C)C)[C@@H](C)CC` (H-SKEKIGKEFKRIVQRIKDFLR-OH), the pEC50 [1] was 4.97, the CC50 (CEM-SS) was 22.5 µM and the selectivity ratio [2] was 2.08.
In the case of `CC[C@H](C)[C@H](NC(=O)CN)C(=O)N[C@@H](CCCCN)C(=O)N[C@@H](CCC(=O)O)C(=O)N[C@@H](Cc1ccccc1)C(=O)N[C@@H](CCCCN)C(=O)N[C@@H](CCCNC(=N)N)C(=O)N[C@H](C(=O)N[C@H](C(=O)N[C@@H](CCC(N)=O)C(=O)N[C@@H](CCCNC(=N)N)C(=O)N[C@H](C(=O)N[C@@H](CCCCN)C(=O)N[C@@H](CC(=O)O)C(=O)N[C@@H](Cc1ccccc1)C(=O)N[C@@H](CC(C)C)C(=O)N[C@@H](CCCNC(=N)N)C(=O)N[C@@H](CC(N)=O)C(=O)N[C@@H](CC(C)C)C(=O)N[C@H](C(=O)O)C(C)C)[C@@H](C)CC)C(C)C)[C@@H](C)CC` (H-GIKEFKRIVQRIKDFLRNLV-OH), the pEC50 [1] was 5.97, the CC50 (CEM-SS) was 22.7 µM and the selectivity ratio [2] was 21.
With `CC[C@H](C)[C@H](NC(=O)[C@H](CCCCN)NC(=O)[C@H](CCCCN)NC(=O)[C@H](Cc1ccccc1)NC(=O)[C@H](CC(C)C)NC(=O)[C@H](CCCCN)NC(=O)[C@H](CCCCN)NC(=O)[C@H](Cc1ccccc1)NC(=O)[C@H](CCCCN)NC(=O)[C@H](CCCCN)NC(=O)[C@H](CCCNC(=N)N)NC(=O)[C@H](Cc1ccccc1)NC(=O)[C@H](CCCNC(=N)N)NC(=O)[C@H](CCCCN)NC(=O)[C@H](Cc1ccccc1)NC(=O)[C@H](CCCNC(=N)N)NC(=O)CN)C(=O)N[C@@H](CO)C(=O)O` (H-GRFKRFRKKFKKLFKKIS-OH) the pEC50 [1] was 6.46, the CC50 (CEM-SS) was 8.45 µM and the selectivity ratio [2] was 24.1.
Work on `CC[C@H](C)[C@H](NC(=O)[C@H](CCCNC(=N)N)NC(=O)[C@H](CCC(N)=O)NC(=O)[C@@H](NC(=O)[C@@H](NC(=O)[C@H](CCCNC(=N)N)NC(=O)[C@H](CCCCN)NC(=O)[C@@H](N)Cc1ccccc1)[C@@H](C)CC)C(C)C)C(=O)N[C@@H](CCCCN)C(=O)N[C@@H](CC(=O)O)C(=O)N[C@@H](Cc1ccccc1)C(=O)N[C@@H](CC(C)C)C(=O)N[C@@H](CCCNC(=N)N)C(=O)O` (H-FKRIVQRIKDFLR-OH) yielded a pEC50 [1] of 5.47, a CC50 (CEM-SS) of 10.4 µM and a selectivity ratio [2] of 3.1.
